This passage reports IC50 results from the Kinase Knowledgebase extract (Sharma et al. 2016).

The target of test [1] is EGFR (human) (UniProt P00533). As to conditions: mda-mb-435.
For test [2], the target named is EGFR (human) (UniProt P00533). Conditions: sw 620.
Test [3] deals with EGFR (human) (UniProt P00533). Conditions: a431.
Test [4] has as its target EGFR (human) (UniProt P00533). Conditions: sk-br-3.
Test [5] deals with EGFR (human) (UniProt P00533). Conditions: 3t3.
The target in test [6] is EGFR (human) (UniProt P00533). Conditions: her2/3t3.

Structures are written as SMILES. Values after ≈ are worked out from the molar mass of the structure shown. Bounds are passed on as bounds.

EGFR (human), sequence (P00533 whole entry, looked up): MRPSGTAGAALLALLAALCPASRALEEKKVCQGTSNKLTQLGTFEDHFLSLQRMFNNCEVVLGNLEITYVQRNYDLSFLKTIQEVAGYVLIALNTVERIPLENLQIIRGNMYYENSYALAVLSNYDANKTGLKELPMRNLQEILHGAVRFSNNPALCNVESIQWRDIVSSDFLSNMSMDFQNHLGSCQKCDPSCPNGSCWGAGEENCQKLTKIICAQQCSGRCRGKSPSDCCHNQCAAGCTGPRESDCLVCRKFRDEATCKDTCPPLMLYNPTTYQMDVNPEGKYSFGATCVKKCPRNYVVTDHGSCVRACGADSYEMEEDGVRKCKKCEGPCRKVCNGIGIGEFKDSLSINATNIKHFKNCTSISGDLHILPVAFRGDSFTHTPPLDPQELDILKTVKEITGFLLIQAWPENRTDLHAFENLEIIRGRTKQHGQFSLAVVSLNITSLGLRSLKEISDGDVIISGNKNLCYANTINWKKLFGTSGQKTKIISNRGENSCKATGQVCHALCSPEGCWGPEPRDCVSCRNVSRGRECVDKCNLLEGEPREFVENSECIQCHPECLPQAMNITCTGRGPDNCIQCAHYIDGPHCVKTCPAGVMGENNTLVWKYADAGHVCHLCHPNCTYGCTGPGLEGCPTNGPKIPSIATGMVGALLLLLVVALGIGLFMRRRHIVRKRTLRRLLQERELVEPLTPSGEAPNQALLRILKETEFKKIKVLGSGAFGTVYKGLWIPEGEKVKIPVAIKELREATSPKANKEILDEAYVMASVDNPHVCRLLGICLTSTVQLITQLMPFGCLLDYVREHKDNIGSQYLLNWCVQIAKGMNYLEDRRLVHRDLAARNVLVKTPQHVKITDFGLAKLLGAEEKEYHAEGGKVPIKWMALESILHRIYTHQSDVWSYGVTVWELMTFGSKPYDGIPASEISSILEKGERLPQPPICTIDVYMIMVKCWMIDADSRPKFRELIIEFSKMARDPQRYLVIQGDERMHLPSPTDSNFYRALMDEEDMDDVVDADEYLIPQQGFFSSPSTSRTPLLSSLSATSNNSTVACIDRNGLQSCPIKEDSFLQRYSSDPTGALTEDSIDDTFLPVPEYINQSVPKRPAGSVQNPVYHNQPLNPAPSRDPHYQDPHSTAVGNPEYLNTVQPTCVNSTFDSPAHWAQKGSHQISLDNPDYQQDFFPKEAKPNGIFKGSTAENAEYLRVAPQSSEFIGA

For the compound `CN1CCC=C(C(=O)Nc2ccc3ncc(C#N)c(Nc4cccc(Br)c4)c3c2)C1`, the IC50 in test [1] was 3.19 µg/mL (≈ 6.91 µM); in test [2] it was over 5 µg/mL; in test [3], 0.369 µg/mL (≈ 0.798 µM); in test [4], 1.5 µg/mL (≈ 3.23 µM).

Consider `COC[C@@H]1CCCN1CC#CC(=O)Nc1ccc2ncc(C#N)c(Nc3cccc(Br)c3)c2c1`, for which the results for the IC50 in test [1] and in test [2] were 0.3 µg/mL (≈ 0.579 µM) and 0.1 µg/mL (≈ 0.193 µM), respectively.

For the compound `C=CCN(C)CC#CC(=O)Nc1ccc2ncc(C#N)c(Nc3cccc(Br)c3)c2c1`, the IC50 in test [1] and in test [2] was 0.1 µg/mL (≈ 0.211 µM) each time.

Take `COc1cc2ncc(C#N)c(Nc3ccc(F)c(Cl)c3)c2cc1NC(=O)/C=C/CN1CCC2(CC1)OCCO2`: the IC50 in test [1] worked out at 3.32 µg/mL (≈ 6.01 µM); in test [2], 2.51 µg/mL (≈ 4.55 µM); in test [3] it was 0.283 µg/mL (≈ 0.513 µM); in test [4], 0.188 µg/mL (≈ 0.341 µM); in test [5] it was 2.79 µg/mL (≈ 5.05 µM); in test [6], 0.35 µg/mL (≈ 0.634 µM).

Consider `COCCOCC#CC(=O)Nc1ccc2ncc(C#N)c(Nc3cccc(Br)c3)c2c1`, for which the IC50 stood at 3.5 µg/mL (≈ 7.3 µM) in test [1], 0.4 µg/mL (≈ 0.834 µM) in test [2], 0.9 µg/mL (≈ 1.88 µM) in test [3] and 0.8 µg/mL (≈ 1.67 µM) in test [4].

With `COCCN(C)CC#CC(=O)Nc1ccc2ncc(C#N)c(Nc3cccc(Br)c3)c2c1`, the figures for the IC50 in test [1], in test [2] and in test [3] were 0.284 µg/mL (≈ 0.577 µM), 0.239 µg/mL (≈ 0.485 µM) and 0.05 µg/mL (≈ 0.102 µM), respectively.

As to `CCOc1c(Nc2ccc3ncc(C#N)c(Nc4cccc(Br)c4)c3c2)c(=O)c1=O`, the IC50 in test [1] amounted to 27.6 µg/mL (≈ 59.6 µM); in test [2], 18 µg/mL (≈ 38.8 µM); in test [3] it was 4.91 µg/mL (≈ 10.6 µM); in test [4] it was 1.74 µg/mL (≈ 3.76 µM).

With `COCCN(CC#CC(=O)Nc1ccc2ncc(C#N)c(Nc3cccc(Br)c3)c2c1)CCOC`, the IC50 is 0.2 µg/mL (≈ 0.373 µM) in test [1], 0.5 µg/mL (≈ 0.932 µM) in test [2] and 0.1 µg/mL (≈ 0.186 µM) in test [3].

Consider `COc1cc2ncc(C#N)c(Nc3ccc(F)c(Cl)c3)c2cc1NC(=O)/C=C\CN1CCCC(CO)C1` (stereo not given), for which the concentration for half-maximal inhibition (IC50) in test [1] stood at 1.83 µg/mL (≈ 3.49 µM); in test [2], 1.73 µg/mL (≈ 3.3 µM); in test [3], 0.232 µg/mL (≈ 0.443 µM); in test [5] it was 2.87 µg/mL (≈ 5.48 µM); in test [6], 0.375 µg/mL (≈ 0.716 µM).

As for `COC[C@@H]1CCCN1C/C=C/C(=O)Nc1cc2c(Nc3ccc(F)c(Cl)c3)c(C#N)cnc2cc1OC`, the IC50 came to 1.74 µg/mL (≈ 3.32 µM) in test [1]; 1.24 µg/mL (≈ 2.37 µM) in test [2]; 0.234 µg/mL (≈ 0.447 µM) in test [3]; 0.148 µg/mL (≈ 0.282 µM) in test [4]; 2.1 µg/mL (≈ 4.01 µM) in test [5]; 0.329 µg/mL (≈ 0.628 µM) in test [6].

On to `COCCN(C)C/C=C\C(=O)Nc1cc2c(Nc3ccc(F)c(Cl)c3)c(C#N)cnc2cc1OC`, for which the concentration for half-maximal inhibition (IC50) was 2.07 µg/mL (≈ 4.16 µM) in test [1]; 1.53 µg/mL (≈ 3.07 µM) in test [2]; 0.245 µg/mL (≈ 0.492 µM) in test [3]; 0.107 µg/mL (≈ 0.215 µM) in test [4]; 2.04 µg/mL (≈ 4.1 µM) in test [5]; 0.192 µg/mL (≈ 0.386 µM) in test [6].

One may read the IC50 as the concentration that inhibits the measured activity by half. Higher therefore signals weaker potency in that assay.
